Measurements taken from patent US5908868A, “Retinol derivatives useful for enhancing immune response” (priority 1995, dated 1999).
Entries after “also recorded” stand apart in the source; their conditions may differ.

Key:
lymphoblastoid 5/2 cells = assay: Conversion of 13,14DHR to 14HRR by lymphoblastoid cells; format: in vitro ADME, human; conditions: 10^-6 M, 1 and 2 hours, ITLB
Procedure: FIGS. 25A through 25D. 13,14DHR can be converted to 14HRR by lymphoblastoid cells. 200,000 5/2 cells/ml were incubated with or without 10^-6 M 13,14DHR added in serum-free ITLB medium. After 1 and 2 hours, cells pellets corresponding to 10 ml of culture were delipidated and the corresponding lipid fractions separated on an analytical C18 reversed-phase column according to FIG. 20. Peaks were identified according to their retention times and their UV absorption patterns.
Lymphoblastoid 5/2 cells devoid of retinol were cultured in the presence or absence of 10^-6 M 13,14DHR for 1 and 2 hours in ITLB medium. The retinoids extracted from the cell pellets were separated by HPLC according to FIG. 20. […] There was no 14HRR measurable in control cultures.

T cells = assay: T cell activation/proliferation; format: cell-based, murine; conditions: with mitogen/anti-CD3
Procedure: They were seeded into 96-well flat-bottom plates at varying cellular densities in a final volume of 100 μl. In control experiments, cells were cultured in medium containing 10% FCS or 3% human serum and 5×10^-5 M 2 ME. […] Cultures were carried out in duplicate. Plates were incubated at 37° C. in a humidified 5% CO2 atmosphere. Cellular proliferation was determined by [^3 H] thymidine uptake (0.5 uCi/well; New England Nuclear, Boston, Mass.) after the incubation times indicated for each experiment with a 4 hour labeling pulse. Cells were harvested onto glass filter and [^3 H]TdR incorporation was determined by liquid scintillation counting. The data presented are the means of duplicate or six replicate cultures. The restriction to duplicate measurements was necessary to conserve scarce 14HRR. […] Each experiment was repeated at least twice.

5/2 cells = assay: Growth (DNA synthesis, [3H]thymidine) of lymphoblastoid 5/2 cells in serum-free medium; format: cell-based, human; conditions: ITLB medium without retinol
Procedure: Washed 5/2 cells (5,000/well) were incubated for 72 hours in HB101 medium with the indicated amounts of retinoids. DNA synthesis was measured by [^3 H] thymidine uptake. The measurements were done in triplicate. The SDs were <15%.
In FIGS. 4B to 4D, 5/2 cells were washed twice and seeded at a concentration of 150,000 cells/ml in HB 101 medium. Triplicate samples of 100 μl of cell suspension were removed daily and pulsed for 6 hours with [^3 H] thymidine. Means are shown. The SDs were never >20%.
P3 was purified as described in the Experimental Details section. 5/2 cells (5,000/well) were incubated for 72 hours in HB101 medium and refed with the indicated amount of retinoid daily. DNA synthesis was measured by [^3 H]-thymidine uptake. P3 is bioactive down to a concentration of 10-^8 M (FIG. 8). […] This is due either to chemical instability or to a more rapid metabolic degradation of P3 by the cells.
The assay was done in 96-well microtiter plates in a final volume of 200 ul/well. The cells were cultured for 72 hours and cell growth determined by [^3 H] thymidine (0.8 μCi/well)labeling for the last 16 hours. Retinoids were added at the indicated concentrations at the initiation of culture and every 24 hours thereafter.
The human EBV-transformed B-cell line 5/2 was established from the peripheral blood of a healthy donor. The cell line was grown in RPMI 1640 supplemented with 8% fetal calf serum, L-glutamine (2 mM), and antibiotics. The cell line was tested regularly for mycoplasma infections and was consistently negative.
The assay system is a modification of the assay developed by Blazar et al. (12). […] Assays were done in 96 well microtiter plates in a final volume of 200 μl/well or in 25 cm^2 tissue culture flasks. The cells in the microtiter plates were cultured for 72 hours and cell growth was determined by labeling for the last 16 hours with 0.8 μCi/well of [^3 H]thymidine (sp. act. 6.7 Ci/mmol). Growth in the culture flasks was determined in three aliquots of 100 μl taken at 24 hours intervals and cultured in the presence of 0.8 μCi of [^3 H]thymidine for an additional 6 hour period. To determine the viable cell number, nine aliquots per time point were differentially counted in a Neubauer chamber in the presence of trypan blue.
5/2 cells were grown in the absence of retinol in a medium containing the basic RPMI 1640 amino acid/salt mixture, insulin (5 μg/ml), transferrin (5 μg/ml), albumin (0.1%) and linoleic acid (10^-6 M) (ITLB). […] The dose-response curve shown in FIG. 26 indicates an effective concentration of 10^-7 M.

[1] = tested on: lymphoblastoid cells (LCL); conditions: serum-free medium; cited from earlier work
lymph node T cells = assay: Proliferation of anti-CD3 activated lymph node T cells; format: cell-based, BALB/c mouse
Description: Growth curves of lymph node T cells depleted of antigen-presenting cells (FIG. 17A) with and without 10^-6 M retinol at 2×10^5 and 5×10^4 cells/well. (FIG. 17B) Dose-responses elicited by different retinoids in cultures of lymph node T cells depleted of antigen-presenting cells. Also shown are the growth curves of CD4^+ (FIG. 17C) and CD8^+ T lymphocytes (FIG. 17D) in the presence of either retinol, 14HRR, human serum or in their absence.
T lymphocytes, purified as described, 5×10^4 well, were activated with immobilized anti-CD3 antibody in ITLB medium. The indicated amounts of retinoids or human serum were added at initiation of cultures. […] 14HRR was added every 12 hours. DNA synthesis was measured by a 4 hour pulse with tritiated thymidine. SDs were ≤17%.
Mature T cells were obtained from pooled intestinal, axillary, inguinal and submandibular lymph nodes of 4 to 10-week-old BALB/c mice. To fractionate cells into CD4 and CD8 subsets and at the same time remove APC, a combination of adherence and complement lysis was used as follows:
Cells were cultured in serum-free medium, referred to as ITLB, containing RPMI 1640 supplemented with 8×10^-7 M insulin (5 μg/ml), 7×10^-8 M transferrin (5 μg/ml), 2×10^-6 M linoleic acid, 2×10^-6 M delipidated BSA (0.12 mg/ml), 2 mM L-glutamine, 1 mM sodium pyruvate and antibiotics. They were seeded into 96-well flat-bottom plates at varying cellular densities in a final volume of 100 μl. In control experiments, cells were cultured in medium containing 10% FCS or 3% human serum and 5×10^-5 M 2 ME. T cells and thymocytes were activated with immobilized, purified anti-mab CD3e or by the addition of Con A in the presence or absence of different concentrations of retinoids. Unless indicated otherwise, retinoids were replenished every 12 hours to maintain a reasonably constant concentration of these labile compounds in culture. The optimal concentration for stimulation of T cells was determined for each batch of anti-CD3 mAb and Con A. The optimal range of Con A was particularly narrow in serum-free medium (0.5-0.2 μg/ml) and varied with the cell density used. […] Cultures were carried out in duplicate. Plates were incubated at 37° C. in a humidified 5% CO2 atmosphere. Cellular proliferation was determined by [^3 H] thymidine uptake (0.5 uCi/well; New England Nuclear, Boston, Mass.) after the incubation times indicated for each experiment with a 4 hour labeling pulse. Cells were harvested onto glass filter and [^3 H]TdR incorporation was determined by liquid scintillation counting. The data presented are the means of duplicate or six replicate cultures. The restriction to duplicate measurements was necessary to conserve scarce 14HRR. They were within 20% of each other. Each experiment was repeated at least twice.

conversion to 14HRR (lymphoblastoid 5/2 cells) | SMILES | substitution for retinol in T cell activation (T cells) | substitution for retinol in T cell activation (T cells; listed as 13,14 DHR) | restoration of capacity to proliferate (5/2 cells) | support of growth of LCL [1] | stimulatory activity at 10^-5 M (lymph node T cells; 10^-5 M) | stimulation of lymph node T cells (lymph node T cells; anti-CD3) | substitution for retinol in T cell activation (T cells; listed as retinoic acid)
produced 14HRR | CC(C=CC1=C(C)CCCC1(C)C)=CC=CC(C)(O)C(O)CO (stereo not drawn) [13,14DHR, 13,14-dihydroxy-retinol] | can effectively substitute for retinol | capable of being used in lieu of retinol | proliferation was restored as well |  |  |  | 
 | CC1=C(/C=C/C(C)=C/C=C/C(C)=C/C(=O)O)C(C)(C)CCC1 [all-trans retinoic acid] | not |  |  | not | very modest stimulatory activity | nearly inert | cannot be satisfied; also recorded: neither respond to externally provided retinoic acid
